Laboratory results from US10918585B2, “Anti-aging agent and anti-aging composition for skin” (SHOWA DENKO K.K., priority 2015, dated 2021).

Key:
elastin genes = test: Expression of elastin genes in normal human fibroblasts (quantitative real-time PCR, standardized to GAPDH); assay type: cell-based; conditions: NB1RGB cells, 0.001 w/v % myo-inositol, 24 hours, purified water = 1.00
Protocol: (§1) The gene expression of collagen and elastin in normal human fibroblasts was examined. Further, it has been known that a decrease in expression level of collagen and elastin due to cellular aging causes wrinkles.
(§2) NB1RGB cells (purchased from Riken BioResource Center), which are normal human fibroblasts, were seeded in a plastic dish at a seeding density of 10000 cells/cm^2 and cultured in Dulbecco's Modified Eagle's medium (DMEM) (manufactured by Sigma-Aldrich Corporation) containing 10% fetal bovine serum for 24 hours. Thereafter, each inositol derivative of Examples 1 to 6 and Comparative Example 1 in a state of being dissolved in purified water was added to the medium at a final concentration of 0.01 w/v % and further cultured for 24 hours. […]
(§3) Next, total RNA was extracted from cells of each group to synthesize cDNA. Next, the expression levels of collagen genes and elastin genes in NB1RGB cells of each group were quantified by performing quantitative real-time PCR using the cDNA as a template. Further, the expression level of glyceraldehyde-3-phospahte dehydrogenase (GAPDH), which is a housekeeping gene, was quantified as an internal standard gene, and the expression levels of collagen genes and elastin genes were respectively standardized based on the expression level of the GAPDH genes in the NB1RGB cells of each group. […]

collagen genes = test: Expression of collagen genes in normal human fibroblasts (quantitative real-time PCR, standardized to GAPDH); assay type: cell-based; conditions: NB1RGB cells, 24 hours
Protocol: as §1, §2, §3

## O[C@H]1[C@H](O)[C@@H](O)[C@H](O)[C@@H](O)[C@H]1O [myo-Inositol]
Elastin genes
  Expression level of genes (relative value) Elastin: 1.23 relative value
Collagen genes; 0.001 w/v % myo-inositol, standardized to GAPDH, purified water = 1.00
  Expression level of genes (relative value) Collagen: 0.54 relative value
Collagen genes; inositol derivatives 0.01 w/v %, myo-inositol 0.001 w/v %
  Expression of collagen genes compared to the purified water as a control (in words): a decrease in expression of collagen genes was shown
